How the values were obtained:
[1] = system: batrachotoxin (BTX) binding site of the sodium channel; assay: Affinity to the batrachotoxin (BTX) binding site of the sodium channel; conditions: rat cerebrocortex synaptosomes, [3H]-batrachotoxinin A20 α-benzoate 10 nM; test concentration not given
[2] = target: T1, 5-HT transporter (Rattus norvegicus, UniProt P31652); assay: Inhibition of 5-HT uptake in synaptosomes; assay type: biochemical; conditions: for inhibition at 1 µM: read-out: Uptake_5-HT, rat, 1 μM, % inhibition
T1 construct: from tissue; host or cells: rat brain synaptosomes (marrow/medulla and pons), P2 fraction
T1 sequence (P31652 whole entry): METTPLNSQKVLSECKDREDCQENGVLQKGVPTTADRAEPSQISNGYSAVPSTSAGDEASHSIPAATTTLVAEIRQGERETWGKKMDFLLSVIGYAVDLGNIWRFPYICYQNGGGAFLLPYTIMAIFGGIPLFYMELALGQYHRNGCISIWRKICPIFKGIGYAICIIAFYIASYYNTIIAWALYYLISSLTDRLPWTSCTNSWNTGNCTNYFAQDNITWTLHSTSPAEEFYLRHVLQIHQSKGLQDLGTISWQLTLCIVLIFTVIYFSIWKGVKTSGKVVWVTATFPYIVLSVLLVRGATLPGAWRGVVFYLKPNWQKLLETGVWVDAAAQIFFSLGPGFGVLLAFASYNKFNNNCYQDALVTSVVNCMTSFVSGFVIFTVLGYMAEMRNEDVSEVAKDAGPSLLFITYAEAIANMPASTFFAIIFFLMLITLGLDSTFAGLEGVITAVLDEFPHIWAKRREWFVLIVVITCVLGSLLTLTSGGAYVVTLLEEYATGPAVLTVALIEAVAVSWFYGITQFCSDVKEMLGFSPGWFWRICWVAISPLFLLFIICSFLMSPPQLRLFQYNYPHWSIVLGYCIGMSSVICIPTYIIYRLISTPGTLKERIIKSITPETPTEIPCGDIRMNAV

Row | Molecule | BTX Inhibition [1] | inhibition at 1 µM [2] [%] | Uptake_5-HT, rat, 1 μM, % inhibition [2] [%]
1 | CCCCN1C(=O)C(C(C)C)NC12CCN(C(=S)Nc1ccccc1C(=O)OC)CC2 (centres unmarked) [Example 143, Methyl 2-[(1-butyl-3-isopropyl-2-oxo-1,4,8-triazaspiro[4,5]decan-8-carbothioyl)amino]-benzoate] | 51 | 32 | –
2 | CCCCN1C(=O)C(C(C)C)NC12CCN(C(=S)Nc1ccccc1F)CC2 (centres unmarked) [Example 122, 1-Butyl-3-isopropyl-2-oxo-1,4,8-triazaspiro[4,5]decan-8-thiocarboxylic acid (2-fluorobenzol)amide] | 35 | – | 32
3 | CC(C)C1NC2(CCN(S(=O)(=O)c3ccc4c(c3)CN(C(=O)C(F)(F)F)CC4)CC2)N(Cc2cccc(C#N)c2)C1=O (centres unmarked) [Example 77, 3-{3-Isopropyl-2-oxo-8-[2-(2,2,2-trifluoroacetyl)-1,2,3,4-tetrahydroisoquinolin-7-sulfonyl]-1,4,8-triazaspiro[4,5]dec-1-ylmethyl}-benzonitrile] | 36 | 32 | –
4 | CC(C)CC1NC2(CCN(C(=S)Nc3ccc(F)cc3)CC2)NC1=O (centres unmarked) [Example 112, 2-Isobutyl-3-oxo-1,4,8-triazaspiro[4,5]decan-8-thiocarboxylic acid (4-fluorobenzol)amide] | 30 | – | 31
5 | CSCCC1NC2(CCN(C(=S)Nc3ccccc3C)CC2)N(Cc2ccc(F)cc2)C1=O (centres unmarked) [Example 186, 1-(4-Fluorobenzyl)-3-(2-methylsulfanylethyl)-2-oxo-1,4,8-triazaspiro[4,5]decan-8-thiocarboxylic acid o-tolylamide] | 52 | 55 | –
6 | O=C(NC1CCCCC1)N1CCC2(CC1)NC(Cc1ccccc1)C(=O)N2Cc1ccccc1F (centres unmarked) [Example 238, 3-Benzyl-1-(2-fluorobenzyl)-2-oxo-1,4,8-triazaspiro[4,5]decan-8-carboxylic acid cyclohexylamide] | 73 | 43 | –
7 | CC(C)C1NC2(CCN(C(=S)Nc3cc(Cl)cc(Cl)c3)CC2)N(Cc2ccccc2)C1=O (centres unmarked) [Example 177, 1-Benzyl-3-isopropyl-2-oxo-1,4,8-triazaspiro[4,5]decan-8-thiocarboxylic acid (3,5-dichlorobenzol)amide] | 46 | – | 36
8 | C=CCN1C(=O)C(C(C)C)NC12CCN(C(=S)Nc1cc(F)ccc1F)CC2 (centres unmarked) [Example 128, 1-Allyl-3-isopropyl-2-oxo-1,4,8-triazaspiro[4,5]decan-8-thiocarboxylic acid (2,5-difluorobenzol)amide] | 33 | – | 57
9 | COC(=O)c1ccccc1S(=O)(=O)N1CCC2(CC1)NC(CCSC)C(=O)N2Cc1ccc(F)cc1 (centres unmarked) [Example 23, Methyl 2-[1-(4-fluorobenzyl)-3-(2-methylsulfanylethyl)-2-oxo-1,4,8-triazaspiro[4,5]decan-8-sulfonyl]-benzoate] | 40 | 69 | –
10 | COC(=O)c1ccc(CN2C(=O)CNC23CCN(S(=O)(=O)c2c(C)cc(C)cc2C)CC3)cc1 [Example 60, Methyl-4-[2-oxo-8-(2,4,6-trimethylbenzolsulfonyl)-1,4,8-triazaspiro[4,5]dec-1-ylmethyl]-benzoate] | 59 | – | 65
11 | CSCCC1NC2(CCN(C(=S)NC(C)c3ccccc3)CC2)N(Cc2ccc3ccccc3c2)C1=O (centres unmarked) [Example 148, 3-(2-Methylsulfanylethyl)-1-naphthalin-2-ylmethyl-2-oxo-1,4,8-triazaspiro[4,5]decan-8-thiocarboxylic acid (1-benzol-ethyl)amide] | 88 | – | 49
12 | CC1(C)C2CCC1(CS(=O)(=O)N1CCC3(CC1)NCC(=O)N3Cc1ccccc1F)C(=O)C2 (centres unmarked) [Example 56, 8-(7,7-Dimethyl-2-oxobicyclo[2.2.1]hept-1-ylmethansulfonyl)-1-(2-fluorobenzyl)-1,4,8-triazaspiro[4,5]decan-2-one] | 32 | 60 | –
13 | CCOC(=O)CN1C(=O)C(Cc2ccccc2)NC12CCN(S(=O)(=O)c1cccs1)CC2 (centres unmarked) [Example 48] | 30 | – | 85
14 | CCCCN1C(=O)C(C(C)C)NC12CCN(C(=S)Nc1ccccc1)CC2 (centres unmarked) [Example 116, 1-Butyl-3-isopropyl-2-oxo-1,4,8-triazaspiro[4,5]decan-8-thiocarboxylic acid benzolamide] | 30 | – | 40
15 | CSCCC1NC2(CCN(C(=S)Nc3ccc(C(C)C)cc3)CC2)N(Cc2ccccc2)C1=O (centres unmarked) [Example 139, 1-Benzyl-3-(2-methylsulfanylethyl)-2-oxo-1,4,8-triazaspiro[4,5]decan-8-thiocarboxylic acid (4-isopropylbenzol)amide] | 97 | – | 63
16 | C=CCNC(=S)N1CCC2(CC1)NC(CCSC)C(=O)N2Cc1ccccc1C#N (centres unmarked) [Example 129, 1-(2-Cyanobenzyl)-3-(2-methylsulfanylethyl)-2-oxo-1,4,8-triazaspiro[4,5]decan-8-thiocarboxylic acid allylamide] | 36 | 41 | –

Row | Molecule | BTX Inhibition [1] | inhibition at 1 µM [2] [%] | Uptake_5-HT, rat, 1 μM, % inhibition [2] [%]
17 | COc1ccc(OC)c(NC(=O)N2CCC3(CC2)NC(CCSC)C(=O)N3Cc2cccc(C#N)c2)c1 (centres unmarked) [Example 242, 1-(3-Cyanobenzyl)-3-(2-methylsulfanylethyl)-2-oxo-1,4,8-triazaspiro[4,5]decan-8-carboxylic acid (2,5-dimethoxy-benzol)amide] | 46 | – | 30
18 | CSCCC1NC2(CCN(C(=O)Nc3cccc(F)c3)CC2)N(Cc2ccc3ccccc3c2)C1=O (centres unmarked) [Example 240, 3-(2-Methylsulfanylethyl)-1-naphthalin-2-ylmethyl-2-oxo-1,4,8-triazaspiro[4,5]decan-8-carboxylic acid (3-fluorobenzol)amide] | 78 | – | 63
19 | CSCCC1NC2(CCN(S(=O)(=O)c3ccccc3C(F)(F)F)CC2)N(Cc2ccc(F)cc2)C1=O (centres unmarked) [Example 25, 1-(4-Fluorobenzyl)-3-(2-methylsulfanylethyl)-8-(2-trifluoromethylbenzolsulfonyl)-1,4,8-triazaspiro[4,5]decan-2-one] | 57 | – | 58
20 | CCCCN1C(=O)C(CCSC)NC12CCN(C(=S)NCC1CCCCC1)CC2 (centres unmarked) [Example 132, 1-Butyl-3-(2-methylsulfanylethyl)-2-oxo-1,4,8-triazaspiro[4,5]decan-8-thiocarboxylic acid cyclohexylmethylamide] | 71 | 30 | –
21 | CCCc1ccc(S(=O)(=O)N2CCC3(CC2)NC(Cc2ccccc2)C(=O)N3CC(=O)OCC)cc1 (centres unmarked) [Example 67, Ethyl[3-benzyl-2-oxo-8-(4-propylbenzolsulfonyl)-1,4,8-triazaspiro[4,5]dec-1-yl]-acetate] | 40 | – | 64
22 | COC(=O)c1ccc(CN2C(=O)C(C(C)C)NC23CCN(C(=O)Nc2ccc(Cl)c(C(F)(F)F)c2)CC3)cc1 (centres unmarked) [Example 241, Methyl 4-[8-(4-chloro-3-trifluoromethylbenzolcarbamoyl)-3-isopropyl-2-oxo-1,4,8-triazaspiro[4,5]dec-1-ylmethyl]-benzoate] | 78 | – | 31
23 | CSCCC1NC2(CCN(C(=O)NCCc3ccccc3)CC2)N(Cc2ccc(F)cc2)C1=O (centres unmarked) [Example 239, 1-(4-Fluorobenzyl)-3-(2-methylsulfanylethyl)-2-oxo-1,4,8-triazaspiro[4,5]decan-8-carboxylic acid phenethylamide] | 69 | 36 | –
24 | CCOC(=O)CN1C(=O)C(Cc2ccccc2)NC12CCN(S(=O)(=O)c1c(C)cc(C)cc1C)CC2 (centres unmarked) [Example 72, Ethyl[3-benzyl-2-oxo-8-(2,4,6-trimethylbenzolsulfonyl)-1,4,8-triazaspiro[4,5]dec-1-yl]-acetate] | 75 | – | 75
25 | CCOC(=O)CN1C(=O)C(Cc2ccccc2)NC12CCN(S(=O)(=O)c1ccccc1C(=O)OC)CC2 (centres unmarked) [Example 80, Methyl 2-(3-benzyl-1-ethoxycarbonylmethyl-2-oxo-1,4,8-triazaspiro[4,5]decan-8-sulfonyl)benzoate] | 33 | 84 | –
26 | CCOC(=O)NC(=S)N1CCC2(CC1)NC(CCSC)C(=O)N2Cc1ccccc1C#N (centres unmarked) [Example 146, Ethyl[1-(2-cyanobenzyl)-3-(2-methylsulfanylethyl)-2-oxo-1,4,8-triazaspiro[4,5]decan-8-carbothioyl]-carbamate] | 30 | 30 | –
27 | COC(=O)c1ccc(CN2C(=O)CNC23CCN(S(=O)(=O)Cc2ccccc2)CC3)cc1 [Example 51, Methyl 4-(2-Oxo-8-benzolmethansulfonyl-1,4,8-triazaspiro[4,5]dec-1-ylmethyl)benzoate] | 31 | – | 62
28 | CCOC(=O)CN1C(=O)C(Cc2ccccc2)NC12CCN(S(=O)(=O)c1cc(OC)ccc1OC)CC2 (centres unmarked) [Example 74, Ethyl[3-benzyl-8-(2,5-dimethoxy-benzolsulfonyl)-2-oxo-1,4,8-triazaspiro[4,5]dec-1-yl]-acetate] | 30 | – | 74
29 | Ethyl[3-b-8-(3-fluorobenzolcarbamoyl)-2-oxo-1,4,8-triazaspiro[4,5]dec-1-yl]-acetate [Example 245] | 31 | – | 51
30 | CCCCOc1ccc(S(=O)(=O)N2CCC3(CC2)NCC(=O)N3Cc2ccccc2C#N)cc1 [Example 5, 2-[8-(4-Butoxy-benzolsulfonyl)-2-oxo-1,4,8-triazaspiro[4,5]dec-1-ylmethyl]-benzonitrile] | 59 | – | 30
31 | O=C1C(Cc2ccccc2)NC2(CCN(S(=O)(=O)c3ccccc3)CC2)N1Cc1ccccc1F (centres unmarked) [Example 71, 8-Benzolsulfonyl-3-benzyl-1-(2-fluorobenzyl)-1,4,8-triazaspiro[4,5]decan-2-one] | 85 | – | 76

Reference: patent US7560468B2, “Substituted 1,4,8-triazaspiro[4,5]decan-2-one compounds” (Gruenenthal GmbH, priority 2004, dated 2009)
